This is an account of results in BindingDB's records for aid1799744 (Csar, 2012).

In the assay the target is Mitogen-activated protein kinase 1 (Homo sapiens, UniProt P28482). In words: Assay 1.
Sequence of Mitogen-activated protein kinase 1 (P28482 whole entry): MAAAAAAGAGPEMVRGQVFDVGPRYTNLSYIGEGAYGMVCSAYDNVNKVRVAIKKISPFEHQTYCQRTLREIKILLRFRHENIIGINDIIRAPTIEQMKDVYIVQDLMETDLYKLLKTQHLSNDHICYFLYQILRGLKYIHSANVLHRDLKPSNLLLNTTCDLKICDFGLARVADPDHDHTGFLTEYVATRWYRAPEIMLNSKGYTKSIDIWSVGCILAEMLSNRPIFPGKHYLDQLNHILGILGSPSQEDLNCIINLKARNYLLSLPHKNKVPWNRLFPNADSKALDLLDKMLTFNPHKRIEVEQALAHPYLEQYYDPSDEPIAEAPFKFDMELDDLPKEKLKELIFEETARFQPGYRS
`Cc1cnc(Nc2ccc(OC(F)(F)F)cc2)nc1-c1c[nH]c(C(=O)N[C@H](CO)c2ccccc2)c1` [erk000447] came in with a Ki of 2 nM. For the compound `O=c1[nH][nH]c2cc(Nc3ccc([N+](=O)[O-])c(Nc4cc(C5CC5)[nH]n4)n3)ccc12` [erk000662], the affinity, expressed as Ki, was 10 nM. Turning to `C[S+]([O-])c1ccc(-c2nc(-c3cccc(I)c3)c(-c3ccncc3)[nH]2)cc1` (stereo not given) [erk000253], the inhibition constant (Ki) is 12900 nM. As for `Cc1cnc(N[C@H]2C[C@H]2CO)nc1-c1c[nH]c(C(=O)N[C@H](CO)c2ccccc2)c1` [erk000515], the Ki worked out at 21 nM. Under `Cc1cnc(NCC2CC2)nc1-c1c[nH]c(C(=O)N[C@H](CO)c2ccccc2)c1` [erk000453] stands 5 nM. Under `Cc1cnc(NC2(CO)CC2)nc1-c1c[nH]c(C(=O)N[C@H](CO)c2ccccc2)c1` [erk000460] stands 1 nM; under `CC[C@@H](CO)Nc1ncc(C)c(-c2c[nH]c(C(=O)N[C@H](CO)c3cccc(Cl)c3)c2)n1` [erk000507], 2 nM; under `CC[C@@H](COC(=O)C(C)(C)N)Nc1ncc(C)c(-c2c[nH]c(C(=O)N[C@H](COC(=O)C(C)(C)N)c3cccc(Cl)c3)c2)n1` [erk000720], 200 nM. As for `Cc1cnc(N[C@@H](CO)CC2CC2)nc1-c1c[nH]c(C(=O)N[C@H](CO)c2ccccc2)c1` [erk000487], affinity was put at a Ki of 4 nM. The same measure for `CCNc1ncc(C)c(-c2c[nH]c(C(=O)N[C@@H](C(C)=O)c3ccccc3)c2)n1` [erk000489]: 1910 nM; for `Cc1cnc(Nc2ccc(F)cc2F)nc1-c1c[nH]c(C(=O)N[C@H](CO)c2ccccc2)c1` [erk000658]: 2 nM; for `Cc1cccc([C@@H](CO)NC(=O)c2cc(-c3nc(NCC(C)C)ncc3C)c[nH]2)c1` [erk000523]: 2 nM. The same measure for `Cc1cnc(N)nc1-c1c[nH]c(C(=O)NCc2cccc(C(F)(F)F)c2)c1` [erk000043]: 562 nM; for `CSCC[C@@H](CO)Nc1ncc(C)c(-c2c[nH]c(C(=O)N[C@H](CO)c3ccccc3)c2)n1` [erk000552]: 5 nM.

With `Cc1cccc([C@@H](CO)NC(=O)c2cc(-c3nc(NOCC(C)C)ncc3C)c[nH]2)c1` [erk000600], the Ki was found to be 10 nM.

`O=C(NCc1ccncc1)c1cc(-c2n[nH]cc2-c2cc(Cl)cc(Cl)c2)c[nH]1` [erk000114] displayed an inhibitory constant (Ki) of 79 nM. Under `Cc1cnc(N)nc1-c1c[nH]c(C(=O)N[C@H](CCO)c2ccccc2)c1` [erk000306] stands 15800 nM.

Take `CNc1ncc(C)c(-c2c[nH]c(C(=O)N[C@@H](CO)c3ccc(F)c(Cl)c3)c2)n1` [erk000396]: the affinity, expressed as Ki, was 68 nM.

`CCNc1ncc(C)c(-c2c[nH]c(C(=O)NCc3ccc(F)c(F)c3)c2)n1` [erk000038] yielded a Ki of 240 nM.

For `CC[C@@H](CO)Nc1ncc(Cl)c(N2CCN(C(=O)N[C@H](CO)c3cccc(Cl)c3)CC2)n1` [erk000711], the Ki was found to be 38 nM. Under `Cc1onc(-c2ccccc2)c1-c1ccnc(NC2CCC(O)CC2)n1` (stereo not given) [erk000075] stands 1000 nM; under `CC[C@@H](CO)Nc1ncc(F)c(-c2c[nH]c(C(=O)N[C@H](CO)c3cccc(Cl)c3)c2)n1` [erk000697], 3 nM; under `CC[C@@H](COC(=O)[C@@H](NC)C(C)C)Nc1ncc(C)c(-c2c[nH]c(C(=O)N[C@H](COC(=O)[C@@H](NC)C(C)C)c3cccc(Cl)c3)c2)n1` [erk000715], 1910 nM. Compound `CC[C@@H](COC)Nc1ncc(C)c(-c2c[nH]c(C(=O)N[C@H](CO)c3cccc(Cl)c3)c2)n1` [erk000557] showed a Ki of 4 nM.

The compound `Cc1cnc(NCCN2CCCC2)nc1-c1c[nH]c(C(=O)N[C@H](CO)c2ccccc2)c1` [erk000568] showed a Ki of 224 nM. The same measure for `Cc1ccc([C@@H](CO)NC(=O)c2cc(-c3nc(Nc4ccccc4)ncc3C)c[nH]2)cc1F` [erk000435]: 2 nM; for `Nc1nccc(-c2c[nH]c(C(=O)NCc3cccc(Cl)c3)c2)n1` [erk000664]: 525 nM; for `CCOC(=O)NNc1ncc(C)c(-c2c[nH]c(C(=O)N[C@H](CO)c3ccccc3)c2)n1` [erk000498]: 646 nM. The same measure for `Cc1cnc(N[C@H](CO)c2ccccc2)nc1-c1c[nH]c(C(=O)N[C@H](CO)c2ccccc2)c1` [erk000445]: 1 nM; for `CNc1ncc(C)c(-c2c[nH]c(C(=O)NCc3cccc(C(F)(F)F)c3)c2)n1` [erk000042]: 468 nM. On to `O=C(NCc1ccc2c(c1)CCO2)c1cc(-c2n[nH]cc2-c2cccc(Cl)c2)c[nH]1` [erk000232], for which affinity was put at a Ki of 21 nM. Under `Cc1cc(C)cc(Nc2ncc(C)c(-c3c[nH]c(C(=O)N[C@H](CO)c4ccccc4)c3)n2)c1` [erk000566] stands 3 nM; under `Cc1cnc(NC2CCCCC2)nc1-c1c[nH]c(C(=O)NCc2ccc(F)c(F)c2)c1` [erk000310], 71 nM; under `Cc1cnc(NC[C@@H](C)O)nc1-c1c[nH]c(C(=O)N[C@H](CO)c2ccccc2)c1` [erk000463], 27 nM. Turning to `O=C(N[C@H](CO)c1ccccc1)c1cc(-c2nc(Nc3ccccc3)ncc2C2CC2)c[nH]1` [erk000434], the inhibitory constant (Ki) was found to be 417 nM.

In turn, `CCc1cnc(N)nc1-c1c[nH]c(C(=O)NCc2cccc3ccccc23)c1` [erk000070] gave an inhibitory constant (Ki) of 1100 nM. With `CCC[C@@H](CO)Nc1ncc(C)c(-c2c[nH]c(C(=O)N[C@H](CO)c3ccccc3)c2)n1` [erk000551], the Ki was 20 nM. The same measure for `COc1ccccc1CNC(=O)c1cc(-c2nc(N)ncc2C)c[nH]1` [erk000312]: 2510 nM; for `CCNc1ncc(C)c(-c2c[nH]c(C(=O)NCc3ccccc3C(F)(F)F)c2)n1` [erk000039]: 4570 nM; for `COc1cccc(Nc2ncc(C)c(-c3c[nH]c(C(=O)N[C@H](CO)c4cccc(C)c4)c3)n2)c1C` [erk000535]: 200 nM. The compound `CC[C@@H](CO)Nc1ncc(C)c(-c2c[nH]c(C(=O)N[C@H](COP(=O)(O)O)c3cccc(Cl)c3)c2)n1` [erk000721] gave an inhibition constant Ki of 4 nM.

`Cc1cnc(N)nc1-c1cc(C(=O)NCc2ccc(F)c(F)c2)n(C)c1` [erk000327] gave an inhibition constant (Ki) of 3470 nM. Compound `Cc1cnc(N)nc1-c1c[nH]c(C(=O)NCc2ccc(F)c(Cl)c2)c1` [erk000304] came in with a Ki of 372 nM. Under `Clc1ccc(-c2n[nH]c3c2CCCC3)cc1` [erk000071] stands 5250 nM; under `Cc1cnc(NOCC2CC2)nc1-c1c[nH]c(C(=O)N[C@H](CO)c2ccccc2)c1` [erk000500], 26 nM.

With `Cc1cnc(N[C@H](C)C(C)C)nc1-c1c[nH]c(C(=O)N[C@H](CO)c2cccc(Cl)c2)c1` [erk000607], the inhibition constant Ki is 1 nM. The same measure for `Cc1cnc(Nc2cccc([N+](=O)[O-])c2)nc1-c1c[nH]c(C(=O)N[C@H](CO)c2ccccc2)c1` [erk000565]: 3 nM.

In turn, `Cc1cccnc1Nc1ncc(C)c(-c2c[nH]c(C(=O)N[C@H](CO)c3ccccc3)c2)n1` [erk000521] yielded a Ki of 91 nM. As to `CC[C@@H](COC(=O)CCC(=O)N1CCOCC1)Nc1ncc(C)c(-c2c[nH]c(C(=O)N[C@H](COC(=O)CCC(=O)N3CCOCC3)c3cccc(Cl)c3)c2)n1` [erk000718], the inhibitory constant (Ki) came to 257 nM. Compared with the last compound, the Ki is about 2.8-fold higher. `Cc1cnc(N)nc1-c1c[nH]c(C(=O)NCc2cccc3ccccc23)c1` [erk000037]: the inhibitory constant (Ki) came out at 603 nM. With `Cc1cccc([C@@H](CO)NC(=O)c2cc(-c3nc(NCC(F)(F)F)ncc3C)c[nH]2)c1` [erk000647], affinity was put at a Ki of 4 nM. The same measure for `CCNc1ncc(C)c(-c2c[nH]c(C(=O)NCc3ccccc3O)c2)n1` [erk000480]: 1510 nM. In the case of `CCNc1ncc(C)c(-c2c[nH]c(C(=O)NCc3ccccc3)c2)n1` [erk000047], affinity was put at a Ki of 89 nM. Under `Cc1ccc(Nc2ncc(C)c(-c3c[nH]c(C(=O)NCc4cccc(C(F)(F)F)c4)c3)n2)cc1C` [erk000440] stands 28 nM; under `CCn1cc(-c2nc(NCC(F)(F)F)ncc2C)cc1C(=O)N[C@H](CO)c1cccc(Cl)c1` [erk000680], 34 nM; under `Cc1cnc(Nc2ccc(Cl)cc2Cl)nc1-c1c[nH]c(C(=O)N[C@H](CO)c2ccccc2)c1` [erk000657], 8 nM. Under `Cc1cccc([C@@H](CO)NC(=O)c2cc(-c3nc(NC(C)C)ncc3C)c[nH]2)c1` [erk000522] stands 1 nM; under `CC(C)Nc1ncc(Cl)c(-c2c[nH]c(C(=O)N(C)[C@H](CO)c3ccccc3)c2)n1` [erk000708], 6 nM. The same measure for `Cc1cnc(NCC2CCOCC2)nc1-c1c[nH]c(C(=O)N[C@H](CO)c2ccccc2)c1` [erk000638]: 17 nM. Turning to `CC[C@@H](COC(=O)C(C)C)Nc1ncc(C)c(-c2c[nH]c(C(=O)N[C@H](CO)c3cccc(Cl)c3)c2)n1` [erk000689], the Ki came to 15 nM. The same measure for `Cc1cnc(NC2CCC(C)CC2)nc1-c1c[nH]c(C(=O)N[C@H](CO)c2ccccc2)c1` (stereo not given in full) [erk000553]: 6 nM. The compound `CC[C@@H](COC(=O)C(C)C)Nc1ncc(Cl)c(-c2c[nH]c(C(=O)N[C@H](COC(=O)C(C)C)c3ccccc3)c2)n1` [erk000696] came in with a Ki of 151 nM. Compared with the last compound, the Ki is about 25-fold higher. Regarding `Cc1cnc(NN2CCCC2)nc1-c1c[nH]c(C(=O)N[C@H](CO)c2cccc(Cl)c2)c1` [erk000624], the affinity, expressed as Ki, was 7 nM. Against the preceding compound, the Ki is about 22-fold lower. In the case of `Nc1nccc(-c2c[nH]c(C(=O)N(CCO)Cc3ccccc3)c2)n1` [erk000543], the affinity corresponds to a Ki of 2000 nM. Under `Cc1cnc(NC2CC2)nc1-c1c[nH]c(C(=O)N[C@H](CO)c2cccc(F)c2)c1` [erk000542] stands 11 nM; under `Cc1cnc(NNS(C)(=O)=O)nc1-c1c[nH]c(C(=O)N[C@H](CO)c2cccc(Cl)c2)c1` [erk000661], 3 nM; under `CCNc1ncc(C)c(-c2c[nH]c(C(=O)N[C@@H](CO)c3ccccc3F)c2)n1` [erk000486], 229 nM. Under `CC[C@@H](COC(=O)COCCOC)Nc1ncc(C)c(-c2c[nH]c(C(=O)N[C@H](CO)c3cccc(Cl)c3)c2)n1` [erk000698] stands 17 nM. The same measure for `CC[C@@H](COC(=O)[C@H](C)N)Nc1ncc(C)c(-c2c[nH]c(C(=O)N[C@H](COC(=O)[C@H](C)N)c3cccc(Cl)c3)c2)n1` [erk000717]: 38 nM. For the compound `Cc1cnc(N[C@H]2CCCOC2)nc1-c1c[nH]c(C(=O)N[C@H](CO)c2cccc(Cl)c2)c1` [erk000640], the Ki is 28 nM.
